Test results as given in ChEMBL document CHEMBL1156829 (Proc Natl Acad Sci U S A, 2008).

What was measured:
Plasmodium falciparum [1] = experiment: NOVARTIS: Inhibition of Plasmodium falciparum 3D7 (drug-susceptible) proliferation in erythrocyte-based infection assay; type: functional, organism-based; conditions: Plasmodium falciparum, 3D7
Plasmodium falciparum [2] = experiment: NOVARTIS: Inhibition of Plasmodium falciparum W2 (drug-resistant) proliferation in erythrocyte-based infection assay; type: functional, organism-based; conditions: Plasmodium falciparum, W2; read-out: EC50
[3] = NOVARTIS: Cytotoxicity against human hepatocellular carcinoma cell line (Huh7); type: toxicity, cell-based, Huh-7; conditions: Huh7 cells (hepatocellular carcinoma cell line)

| SMILES | EC50 (Plasmodium falciparum [1]) [nM] | EC50 (Plasmodium falciparum [2]) [nM] | CC50 [3] [nM] |
| --- | --- | --- | --- |
| c1ccc([Si]2(c3ccccc3)N[Si](c3ccccc3)(c3ccccc3)N[Si](c3ccccc3)(c3ccccc3)N2)cc1 | 521 | 299 | > 10000 |
| CSc1ccc(NC(=O)N2CCCn3cccc3C2c2ccc(C(F)(F)F)cc2)cc1 (centres undefined) | 3990 | 1810 | > 100000 |
| Cc1cc(C)n(-c2ccc(NC(=O)C3CCN(Cc4ccc5nonc5c4)CC3)cc2)n1 | 430 | 412 | > 83200 |
| COc1cccc(C(=O)N(CCCC(C)Nc2cc(OC)cc3cccnc23)Cc2ccc(OC)c(OC)c2)c1 (centres undefined) | 1480 | 513 | > 4010 |
| CCn1c(=NC(=O)c2cc(=O)c3ccccc3o2)sc2c(OC)ccc(OC)c21 | 1500 | 55.6 | > 10000 |
| C/C=C(\Cl)C1=CC(=O)[C@]23C[C@H]2[C@@]2(C)CO[C@@]1(O)[C@@]3(O)O2 | 205 | > 1250 | > 10000 |
| CCCCCN(C(=O)Nc1ccccc1OC)C(CC)c1nc2ccccc2c(=O)n1-c1ccccc1OC (centres undefined) | 780 | 835 | > 10000 |
| Cc1ccc(C(=O)NCCN2CCCCC2)cn1 | > 1310 | 621 | > 10000 |
| COc1ccc(NC(=O)Cn2ncc3ccccc32)cc1OC | > 1250 | 984 | > 100000 |
| N#CC(c1ccc(C(F)(F)F)cc1)c1ccc2c(C(F)(F)F)cc(C(F)(F)F)nc2n1 (centres undefined) | 413 | 316 | 2510 |
| O=C(Nc1ccc(-c2nc3cc(NC(=O)c4cccs4)ccc3[nH]2)cc1)c1cccs1 | 1550 | 2010 | > 100000 |
| COC(=O)c1cc(NC(=S)NC(=O)c2c(OC)cccc2OC)cc(C(=O)OC)c1 | 5170 | > 12500 | > 100000 |
| OC(CN1CCN(c2ccnc3cc(Cl)ccc23)CC1)CN1CCN(c2ccnc3cc(Cl)ccc23)CC1 | 85.6 | 29.6 | > 10000 |
| CCOC(=O)C1=C(C)N(c2ccc(N(C)C)cc2)C(C)=C(C(=O)OCC)C1c1ccc(Br)cc1 | > 1130 | 896 | 19600 |
| CCOc1ccccc1C(=O)NC(Nc1sc2c(c1C(N)=O)CCCC2)(C(F)(F)F)C(F)(F)F | > 7500 | 2490 | > 100000 |
| CCOC(=O)c1cc(-c2ccccc2)n(CCC(=O)Nc2ccccc2N2CCN(C)CC2)c1C | 794 | 336 | 17300 |
| Cn1cnnc1SCC(=O)Nc1ccccc1C(F)(F)F | > 12500 | 1190 | > 100000 |
| COc1ccc2oc(=O)c(C(=O)N(C)c3ccc(S(N)(=O)=O)cc3)cc2c1 | > 1250 | > 1010 | > 10000 |
| CN(C)CCNc1cc(-c2ccccc2)nc2ccccc12 | 692 | 819 | 21200 |
| COc1ccc(-c2c[n+](CC(=O)c3ccc(C)cc3)c3n2CCC3)cc1 | 745 | 200 | > 100000 |
| CCCCCN(C(=O)c1cccc(C(F)(F)F)c1)C(CC)c1nc2ccccc2c(=O)n1-c1ccccc1OC (centres undefined) | 728 | 673 | > 10000 |
| CC(C)(C)NC(=O)c1cn(C2CCCCC2)cc(C(=O)NC2CCN(Cc3ccccc3)C2)c1=O (centres undefined) | 188 | < 12.8 | > 10000 |
| O=C1C=C(Nc2cccc(C(F)(F)F)c2)C(=O)c2ccccc21 | 549 | 519 | > 100000 |
| CCOc1ccc2c(c1)cc(CN(C(C)=O)C1CCCC1)c1nnnn12 | > 1250 | 268 | > 10000 |

| SMILES | EC50 (Plasmodium falciparum [1]) [nM] | EC50 (Plasmodium falciparum [2]) [nM] | CC50 [3] [nM] |
| --- | --- | --- | --- |
| CCN(CC)c1ccc2cc(C(C)=NNC(N)=S)c(=O)oc2c1 | 4310 | 7460 | > 100000 |
| O[C@H]1[C@H]2c3cc4c(cc3CN3CCC(=C[C@@H]1O)[C@H]23)OCO4 [LYCORINE] | 607 | 156 | 66100 |
| CC(C)c1cccc(C(C)C)c1NC(=O)N(Cc1ccccc1)C(C)c1nc2ccccc2c(=O)n1-c1ccc(Br)cc1 (centres undefined) | 1320 | 28 | > 10000 |
| COc1ccc(NC(=O)CCCCCn2c(SCc3cc(=O)oc4cc(O)ccc34)nc3ccsc3c2=O)cc1 | 5820 | 2870 | > 100000 |
| CN(C)CCn1cnc2sc3c(c2c1=O)CCC(NCc1cccc(Cl)c1)C3 (centres undefined) | 748 | 479 | 18900 |
| O=C1NC(=S)NC1=Cc1cccc(Oc2ccccc2)c1 | > 6890 | 1940 | > 100000 |
| CC(C)N1CCCc2cc(CN3CCC(n4cc(C(=O)NCCCO)nn4)CC3)ccc21 | > 1250 | 134 | > 10000 |
| CN(C)c1ccc(C2Nc3ccccc3NC3=C2C(=O)CC(C)(C)C3)cc1 (centres undefined) | > 12500 | 4390 | > 100000 |
| CC1=C(C(=O)OC(C)C)C(c2ccc([N+](=O)[O-])cc2)C2=C(CC(c3ccc(Cl)cc3)CC2=O)N1 (centres undefined) | 1190 | 56.3 | > 100000 |
| COc1ccccc1Nc1nc2cc([N+](=O)[O-])c([N+](=O)[O-])cc2nc1Nc1cccc(Cl)c1 | > 1250 | 82.2 | > 10000 |
| O=C1Nc2ccccc2C1=NN=Cc1ccc(-c2ccccc2[N+](=O)[O-])o1 | > 12500 | 6750 | > 100000 |
| CCCNC(=O)c1cc(NC(=O)c2cc(C(F)(F)F)cc(C(F)(F)F)c2)ccc1N1CCCCC1 | > 1560 | > 816 | 10200 |
| CCCn1c(-c2cccc(Br)c2)nc2ccccc21 | > 1140 | > 1220 | > 10000 |
| O=C(Nc1cccc(C2=NCCN2)c1)c1ccc(C(=O)Nc2cccc(C3=NCCN3)c2)cc1 | 599 | 178 | > 10000 |
| CS/C(Cl)=C(/NC(C)=O)[P+](c1ccccc1)(c1ccccc1)c1ccccc1.[O-][Cl+3]([O-])([O-])[O-] | 115 | 100 | > 10000 |
| C=C[C@H]1CN2CC[C@H]1C[C@@H]2[C@@H](OC(=O)c1cccs1)c1ccnc2ccccc12 | 1130 | 294 | > 10000 |
| Cc1cccc(NC(=O)CCCn2c(=O)c3cccn3c3ccccc32)c1C | 778 | 906 | > 100000 |
| COc1nncc(-c2cnnc(SC)n2)n1 | 237 | 219 | 28400 |
| CCc1c(C)c(=N)c2ccccc2n1C | 701 | 534 | > 100000 |
| CCC(C(=O)NCc1ccc(OC)c(OC)c1)n1nc(C)c2c(C)n(-c3ccc(C)cc3)nc2c1=O (centres undefined) | 273 | 299 | > 100000 |
| Cc1ccc(-c2nc3ncccc3o2)cc1NC(=O)COc1ccc(C(C)(C)C)cc1 | 420 | 1050 | > 100000 |
| COc1ccc(Br)cc1CNC(=O)CCCN1C(=O)COc2ccc(C)cc21 | 1880 | 628 | > 100000 |
| Oc1ccc2cc(-c3nc4ccccc4[nH]3)c3nc4ccccc4n3c2c1 | > 1050 | 970 | > 10000 |
| Cc1ccc(C)c(NC(=O)c2c(-c3c(Cl)cccc3Cl)noc2C)c1 | 218 | 443 | > 70700 |
